Test results from PubChem BioAssay AID180 (DTP/NCI, 2004).
Several values for one entry are separate records, joined by “and”; a condition that tells them apart may be missing. Identical values can stand only once.

Test system: BDF1 mice, Adenocarcinoma 755 s.c., tumor weight T/C
Assay: NCI In Vivo Anticancer Drug Screen. Data for tumor model Adenocarcinoma 755 (subcutaneous) in B6D2F1 (BDF1) mice
Conditions: endpoint: mean tumor weight, schedule: Q01DX011 (ip), higher = larger tumour
Method: The antitumor activity of compounds was measured in mice bearing transplantable tumors. Survival or tumor size were measured and the results are expressed as the measurement made in the treated group (T) divided by the measurement made in the vehicle treated control group (C). The tumor model used in this assay is Adenocarcinoma 755 (subcutaneous) in B6D2F1 (BDF1) mice

[1] = dose: 15.0 mg/kg/injection, vehicle: methylcellulose (MC)
[2] = dose: 31.0 mg/kg/injection, vehicle: methylcellulose (MC)
[3] = dose: 30.0 mg/kg/injection, vehicle: methylcellulose (MC)
[4] = dose: 30.0 mg/kg/injection, vehicle: carboxymethylcellulose (CMC)
[5] = dose: 60.0 mg/kg/injection, vehicle: carboxymethylcellulose (CMC)
[6] = dose: 120.0 mg/kg/injection, vehicle: carboxymethylcellulose (CMC)
[7] = dose: 240.0 mg/kg/injection, vehicle: carboxymethylcellulose (CMC)

In the case of `O=S1(=O)OCc2ccccc21`, the T/C (dose: 27.5 mg/kg/injection, vehicle: carboxymethylcellulose (CMC)) was 113 % of control, the T/C (dose: 27.5 mg/kg/injection, vehicle: methylcellulose (MC)) was 118 % of control and the T/C (dose: 55.0 mg/kg/injection, vehicle: carboxymethylcellulose (CMC)) was 68 % of control. The T/C (dose: 55.0 mg/kg/injection, vehicle: methylcellulose (MC)) was 98 % of control and the T/C (dose: 110.0 mg/kg/injection, vehicle: methylcellulose (MC)) was 17 % of control.
For `CSc1ncc(Br)c(=O)[nH]1`, the T/C [1] was 81 % of control, the T/C [2] was 72 % of control and the T/C (dose: 250.0 mg/kg/injection, vehicle: methylcellulose (MC)) was 56 % of control.
With `COC(=O)C1C(O)CCC2CN3CCc4c([nH]c5ccccc45)C3CC21` (stereo not drawn) the T/C (dose: 150.0 mg/kg/injection, vehicle: carboxymethylcellulose (CMC)) was 75 % of control.
For `CSc1ncc(Br)c(=S)[nH]1`, the T/C [1] was 74 % of control and the T/C [2] was 70 % of control.
For `CN(C)[C@@H]1C(=O)C(C(=O)NCNCCCC(=O)O)=C(O)[C@@]2(O)C(=O)C3=C(O)c4c(O)cccc4[C@@](C)(O)[C@H]3C[C@@H]12`, the T/C (dose: 87.5 mg/kg/injection, vehicle: saline) was 106 % of control and 115 % of control, the T/C (dose: 175.0 mg/kg/injection, vehicle: saline) was 54 % of control and 78 % of control and the T/C (dose: 350.0 mg/kg/injection, vehicle: saline) was 51 % of control and 52 % of control.
In the case of `CCC1CN1CC1CO1` (stereo not drawn), the T/C (dose: 5.0 mg/kg/injection, vehicle: saline) was 96 % of control and the T/C (dose: 10.0 mg/kg/injection, vehicle: saline) was 99 % of control.
`N=[N+]=CC(=O)OCC(N)C(=O)O` (stereo not drawn) was tested, and the T/C (dose: 0.9 mg/kg/injection, vehicle: carboxymethylcellulose (CMC)) was 124 % of control, the T/C (dose: 1.8 mg/kg/injection, vehicle: carboxymethylcellulose (CMC)) was 111 % of control and the T/C (dose: 2.31 mg/kg/injection, vehicle: carboxymethylcellulose (CMC)) was 72 % of control. For the same compound, the T/C (dose: 3.6 mg/kg/injection, vehicle: carboxymethylcellulose (CMC)) was 90 % of control and 78 % of control, the T/C (dose: 4.63 mg/kg/injection, vehicle: carboxymethylcellulose (CMC)) was 61 % of control and the T/C (dose: 4.8 mg/kg/injection, vehicle: carboxymethylcellulose (CMC)) was 62 % of control and 74 % of control. For the same compound, the T/C (dose: 7.2 mg/kg/injection, vehicle: carboxymethylcellulose (CMC)) was 28 % of control and 40 % of control and 51 % of control, the T/C (dose: 7.4 mg/kg/injection, vehicle: carboxymethylcellulose (CMC)) was 50 % of control and the T/C (dose: 9.25 mg/kg/injection, vehicle: carboxymethylcellulose (CMC)) was 50 % of control and 66 % of control. For the same compound, the T/C (dose: 12.33 mg/kg/injection, vehicle: carboxymethylcellulose (CMC)) was 23 % of control and the T/C (dose: 18.5 mg/kg/injection, vehicle: carboxymethylcellulose (CMC)) was 10 % of control.
With `CC(C)CCn1cnc2c(SCc3ccccc3F)nc(N)nc21` the T/C [3] was 62 % of control, the T/C (dose: 100.0 mg/kg/injection, vehicle: methylcellulose (MC)) was 65 % of control and the T/C (dose: 300.0 mg/kg/injection, vehicle: methylcellulose (MC)) was 10 % of control.
In the case of `O=C(Nc1ccc(C2=NCCN2)cc1)c1ccc(N=Nc2ccc(C(=O)Nc3ccc(C4=NCCN4)cc3)cc2)cc1`, the T/C [1] was 151 % of control, the T/C [3] was 119 % of control and the T/C (dose: 120.0 mg/kg/injection, vehicle: methylcellulose (MC)) was 100 % of control.
For `CN(C)S(=O)(=O)c1nc2nc[nH]c(=O)c2[nH]1`, the T/C [4] was 108 % of control, the T/C [5] was 158 % of control and the T/C [6] was 101 % of control. The T/C [7] was 91 % of control.
With `CCCCCCn1cnc2c(=S)nc[nH]c21` the T/C (dose: 63.0 mg/kg/injection, vehicle: carboxymethylcellulose (CMC)) was 50 % of control and the T/C (dose: 500.0 mg/kg/injection, vehicle: carboxymethylcellulose (CMC)) was 5 % of control and 13 % of control.
In the case of `O=c1[nH]c(Br)nc2nc[nH]c12`, the T/C [4] was 99 % of control, the T/C [5] was 98 % of control and the T/C [6] was 81 % of control. The T/C [7] was 92 % of control.
